Laboratory results from patent US12331045B2, “Substituted phenyl oxazolone compounds” (Bristol-Myers Squibb Company, priority 2023, dated 2025).

Assays:
Type in all cases: cell-based
IKZF3 Aiolos [1] = target: T1, IKZF3 Aiolos (Homo sapiens, UniProt Q96SW2+Q9UKT9); test: Jurkat Cellular Degradation Assay; details: Jurkat cells, 72 h; for IKZF3 Aiolos max % deg. observed: flow cytometry, 100% = complete degradation
Description: (§1) Jurkat cells were plated at 80,000 cells/well in 40 μL RPMI+10% FBS in a 384-well cell culture plate prior to using acoustic dispensing technology for adding a compound of interest. Cell cultures were incubated for 72 h at 37° C., and 5% CO2. In order to facilitate analysis, cell cultures were spun down at 200 rpm for 5 min and the supernatant was discarded. After shaking the plate to dislodge the cell pellet, cells were resuspended in 50 qL of Fixation Buffer (eBioscience FoxP3 buffer set 00-5523-00) for 60 min at room temperature. After centrifuging and discarding the supernatant, cells were permeabilized with 50 μL of Permeabilization buffer (eBioscience FoxP3 buffer set 00-5523-00) for 10 min at room temperature. Following permeabilization, cells were spun down and the supernatant was replaced with 20 μL fluorescently labelled antibodies against Helios, Ikaros and Aiolos or corresponding Isotype controls in 1-Penneabilization buffer (Ikaros-Alexa488 [Biolegend, Cat #368408, 1:50], Helios-PE [CST, Cat #29360, 1:50], Aiolos-Alexa647 [Biolegend, Cat #371106 Biolegend, 1:25]) and staining reactions were incubated for 1 h at room temperature while protected from light. Subsequently, 30 μL of 1× Permeabilization buffer was added prior to centrifuging the cells and discarding the supernatant. Stained cells were resuspended in 25 μL of flow cytometry staining buffer [PBS+0.2% bovine serum albumin (BSA)] and analyzed using an Intellicyt Ique Plus flow cytometer.

IKZF3 Aiolos [2] = target: T1, IKZF3 Aiolos; test: Human CD8+ T Cell Reprogramming Assay (method headed Human CD8+ T Cell Degradation Assay); set-up: HELIOS-PE-Cy7, EOS-PE, IKAROS-PECF594, AIOLOS-AF647; endogenous in cells; host or cells: healthy-donor human PBMC; CD8+ T cells analysed by flow cytometry; details: CD8+ T cells in human PBMC, 24 hours; for IKZF3 Aiolos Maximum Observed Degradation: flow cytometry; for DC50: 50% reduction vs DMSO
Description: (§2) Cryopreserved healthy donor human peripheral blood mononuclear cells (PBMC; obtained from Stemcell Technologies or Blood Works Northwest) from two healthy donors were thawed and seeded at 500,000 cells/well of 96-well round bottom plates in RPMI 1640 media (Gibco) supplemented with 10% FBS, Pen/Strep (Gibco), MEM-NEAA (Gibco), and sodium pyruvate (Gibco). Cells were treated with titrated doses of compound for 24 hours at 37° C., 5% CO2 before analyzing by flow cytometry.
(§3) For flow cytometry staining, cells were washed twice with flow cytometry staining buffer (Thermo Fisher) and incubated in Human Tru-stain Fc block (Biolegend) for 10 minutes before adding eFluor780 viability dye (Thermo Fisher) and surface marker antibody cocktail containing LD-eFluor780, CD3-BUV-395, CD4-BUV805, CD8-FITC, CD25-BV605, FoxP3-BV421, HELIOS-PE-Cy7, EOS-PE, IKAROS-PECF594, AIOLOS-AF647 for 30 minutes at 4° C. Cells were then fixed and permeabilized by incubation with permeabilization buffer (eBioscience FoxP3 buffer set 00-5523-00) for 30 minutes at 4° C., as per the kit manufacturer's instructions. Cells were washed twice with the Perm/Wash buffer suppled in the kit as per the manufacturer's instructions and incubated overnight at 4° C. with an intracellular antibody cocktail comprised of antibodies specific for the transcription factors shown in Table C. Cells were washed twice with Perm/Wash buffer and resuspended in flow cytometry staining buffer (Thermo Fisher) prior to acquisition. Sample acquisition and analysis was performed using a BD LSRFortessa (BD Biosciences) flow cytometer. Single stain controls for each fluorochrome were prepared using UltraComp eBead Compensation Beads (Thermo Fisher). Data were analyzed using FlowJo version 10 and GraphPad Prism Software.

IKZF1 Ikaros [3] = target: T2, IKZF1 Ikaros (Homo sapiens, UniProt Q13422+Q96SW2); test: as above; set-up: HELIOS-PE-Cy7, EOS-PE, IKAROS-PECF594, AIOLOS-AF647; endogenous in cells; host or cells: healthy-donor human PBMC; CD8+ T cells analysed by flow cytometry; details: CD8+ T cells in human PBMC, 24 hours; for IKZF1 Ikaros Maximum Observed Degradation: flow cytometry; for DC50: 50% reduction vs DMSO
T2 sequence (Q13422 whole entry): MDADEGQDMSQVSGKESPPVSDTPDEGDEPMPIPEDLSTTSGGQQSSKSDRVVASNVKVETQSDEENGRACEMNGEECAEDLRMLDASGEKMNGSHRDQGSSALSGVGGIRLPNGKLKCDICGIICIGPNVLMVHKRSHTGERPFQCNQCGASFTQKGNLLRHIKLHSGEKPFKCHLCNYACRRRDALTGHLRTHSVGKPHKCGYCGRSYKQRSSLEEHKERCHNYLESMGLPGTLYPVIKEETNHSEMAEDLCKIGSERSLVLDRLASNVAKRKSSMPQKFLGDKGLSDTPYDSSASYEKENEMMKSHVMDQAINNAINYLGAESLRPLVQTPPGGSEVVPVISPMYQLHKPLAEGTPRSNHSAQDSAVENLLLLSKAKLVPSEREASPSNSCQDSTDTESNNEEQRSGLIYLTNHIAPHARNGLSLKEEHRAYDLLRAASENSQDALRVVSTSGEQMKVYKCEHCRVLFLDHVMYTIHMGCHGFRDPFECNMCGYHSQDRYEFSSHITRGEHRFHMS
T2 sequence (Q96SW2 whole entry): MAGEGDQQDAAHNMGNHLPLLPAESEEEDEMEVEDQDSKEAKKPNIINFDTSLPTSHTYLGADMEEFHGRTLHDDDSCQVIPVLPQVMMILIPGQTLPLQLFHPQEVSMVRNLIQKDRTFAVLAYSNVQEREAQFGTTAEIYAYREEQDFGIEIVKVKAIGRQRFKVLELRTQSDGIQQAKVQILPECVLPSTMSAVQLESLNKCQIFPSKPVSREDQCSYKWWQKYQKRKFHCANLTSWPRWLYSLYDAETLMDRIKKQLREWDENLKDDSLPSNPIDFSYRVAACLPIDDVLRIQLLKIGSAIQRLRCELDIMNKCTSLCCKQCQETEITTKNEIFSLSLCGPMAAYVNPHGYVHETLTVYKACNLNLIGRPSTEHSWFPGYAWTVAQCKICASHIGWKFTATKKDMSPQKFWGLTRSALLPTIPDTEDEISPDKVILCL
T2 sequence (Q16531 whole entry partner): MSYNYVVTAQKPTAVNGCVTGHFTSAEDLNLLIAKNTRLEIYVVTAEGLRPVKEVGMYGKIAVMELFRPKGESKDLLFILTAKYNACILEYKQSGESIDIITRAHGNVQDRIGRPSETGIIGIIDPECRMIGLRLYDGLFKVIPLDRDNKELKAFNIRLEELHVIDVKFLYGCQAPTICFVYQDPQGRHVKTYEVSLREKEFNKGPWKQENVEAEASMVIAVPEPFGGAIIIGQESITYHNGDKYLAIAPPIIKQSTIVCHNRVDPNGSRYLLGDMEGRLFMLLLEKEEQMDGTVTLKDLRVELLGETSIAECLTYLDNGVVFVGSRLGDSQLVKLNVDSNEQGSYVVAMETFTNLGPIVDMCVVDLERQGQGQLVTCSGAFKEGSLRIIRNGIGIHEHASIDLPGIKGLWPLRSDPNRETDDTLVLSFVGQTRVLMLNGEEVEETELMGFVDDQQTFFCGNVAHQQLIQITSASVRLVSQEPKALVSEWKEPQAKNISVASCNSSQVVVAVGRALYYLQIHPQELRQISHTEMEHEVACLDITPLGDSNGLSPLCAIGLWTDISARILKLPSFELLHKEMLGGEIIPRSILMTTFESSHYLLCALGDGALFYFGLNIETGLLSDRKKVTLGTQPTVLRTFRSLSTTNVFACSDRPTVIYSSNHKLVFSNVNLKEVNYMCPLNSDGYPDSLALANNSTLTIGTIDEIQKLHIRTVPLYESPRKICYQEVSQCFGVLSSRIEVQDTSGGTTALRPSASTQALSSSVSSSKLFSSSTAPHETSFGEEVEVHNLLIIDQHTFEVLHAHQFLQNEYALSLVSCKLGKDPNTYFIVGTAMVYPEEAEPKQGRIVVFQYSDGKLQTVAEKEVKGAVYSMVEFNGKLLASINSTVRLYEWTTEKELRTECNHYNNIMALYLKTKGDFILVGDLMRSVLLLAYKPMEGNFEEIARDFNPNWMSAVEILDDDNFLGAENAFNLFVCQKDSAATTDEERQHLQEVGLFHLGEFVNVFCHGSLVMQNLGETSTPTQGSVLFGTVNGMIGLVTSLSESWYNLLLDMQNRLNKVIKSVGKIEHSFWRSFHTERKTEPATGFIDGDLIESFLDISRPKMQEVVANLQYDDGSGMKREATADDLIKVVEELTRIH
Description: as §2, §3

IKZF2 Helios [4] = target: T3, IKZF2 Helios (Homo sapiens, UniProt Q96SW2+Q9UKS7); test: Human T Regulatory Cells Reprogramming Assay; set-up: endogenous in cells; host or cells: primary human CD4+CD127lowCD25+ Treg cells sorted from healthy-donor leukopaks; details: sorted human Treg cells, 12-13 days; 50% reduction vs DMSO
T3 sequence (Q9UKS7 whole entry): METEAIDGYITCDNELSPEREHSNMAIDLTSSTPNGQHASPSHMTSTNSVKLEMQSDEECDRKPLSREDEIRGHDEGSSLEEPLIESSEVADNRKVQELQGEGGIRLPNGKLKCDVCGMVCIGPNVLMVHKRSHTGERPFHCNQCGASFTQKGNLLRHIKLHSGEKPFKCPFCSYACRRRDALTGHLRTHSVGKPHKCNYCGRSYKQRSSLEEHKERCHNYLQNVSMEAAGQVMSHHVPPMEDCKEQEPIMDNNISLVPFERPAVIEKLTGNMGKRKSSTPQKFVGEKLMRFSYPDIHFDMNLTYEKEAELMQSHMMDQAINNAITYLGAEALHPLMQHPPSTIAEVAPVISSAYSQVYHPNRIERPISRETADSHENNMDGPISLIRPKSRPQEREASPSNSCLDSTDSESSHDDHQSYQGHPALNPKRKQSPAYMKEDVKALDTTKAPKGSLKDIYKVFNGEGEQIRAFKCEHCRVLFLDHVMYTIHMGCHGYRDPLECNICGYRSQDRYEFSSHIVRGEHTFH
T3 sequence (Q96SW2 whole entry): as the sequence (Q96SW2 whole entry) above
T3 sequence (Q16531 whole entry partner): as the sequence (Q16531 whole entry partner) above
Description: (§4) Human CD4^+ T cells were isolated from fresh healthy leukopaks (Stemcell Technologies) using the RosetteSep Human CD4^+ T cell enrichment cocktail (Stemcell Technologies) and Ficoll density gradient centrifugation. Leukopaks were diluted with an equal volume of phosphate-buffered saline (PBS [Gibco]) supplemented with 2% fetal bovine serum (FBS, VWR Lifescience) and incubated with RosetteSep Human CD4^+ T cell enrichment cocktail for 20 minutes before layering on Ficoll-Paque Plus solution (GE Health Care). The cell-rich interface layer was harvested and washed twice with PBS supplemented with 2% FBS. Regulatory T cells were then isolated manually using the EasySep Human CD4^+CD127^lowCD25^+ Regulatory T cell isolation kit (Stemcell Technologies) according to the manufacturer's instructions. Cells were rested overnight in Roswell Park Memorial Institute (RPMI) 1640 media (Gibco) supplemented with 10% FBS, Pen/Strep (Gibco), MEM-NEAA (Gibco), and sodium pyruvate (Gibco) in a humidified incubator (37° C., 5% CO2). […]
(§5) For flow cytometry staining, cells were washed twice with flow cytometry staining buffer (Thermo Fisher) and incubated in Human Tru-stain Fc block (Biolegend) for 10 minutes before adding eFluor780 viability dye (Thermo Fisher) and surface marker antibody cocktail for 30 minutes at 4° C. […] Data were analyzed using FlowJo version 10 and GraphPad Prism Software.

IKZF4 Eos = target: T4, IKZF4 Eos (Homo sapiens, UniProt Q96SW2+Q9H2S9); test: Human T Regulatory Cells Reprogramming Assay; details: sorted human Treg cells, 12-13 days; 50% reduction vs DMSO
T4 construct: endogenous in cells; host or cells: primary human CD4+CD127lowCD25+ Treg cells sorted from healthy-donor leukopaks
T4 sequence (Q9H2S9 whole entry): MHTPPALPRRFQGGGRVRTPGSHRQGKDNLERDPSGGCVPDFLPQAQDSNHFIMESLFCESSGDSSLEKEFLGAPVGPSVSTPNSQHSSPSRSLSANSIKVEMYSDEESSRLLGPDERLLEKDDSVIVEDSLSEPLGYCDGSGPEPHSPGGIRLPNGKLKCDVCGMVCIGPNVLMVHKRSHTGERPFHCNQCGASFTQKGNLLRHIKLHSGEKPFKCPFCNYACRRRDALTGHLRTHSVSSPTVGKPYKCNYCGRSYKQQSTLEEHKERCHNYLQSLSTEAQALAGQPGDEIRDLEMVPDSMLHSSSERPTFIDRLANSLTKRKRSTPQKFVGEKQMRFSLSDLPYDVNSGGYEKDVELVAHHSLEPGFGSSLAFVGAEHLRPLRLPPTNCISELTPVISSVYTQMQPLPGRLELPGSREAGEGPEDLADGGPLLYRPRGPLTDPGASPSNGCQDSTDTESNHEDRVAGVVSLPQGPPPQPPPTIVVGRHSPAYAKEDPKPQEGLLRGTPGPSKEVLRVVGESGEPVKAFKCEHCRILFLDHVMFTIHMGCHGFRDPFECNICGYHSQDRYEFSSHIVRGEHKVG
T4 sequence (Q96SW2 whole entry): as the sequence (Q96SW2 whole entry) above
T4 sequence (Q16531 whole entry partner): as the sequence (Q16531 whole entry partner) above
Description: as §4, §5

IKZF1 Ikaros [5] = target: T2, IKZF1 Ikaros; test: Jurkat Cellular Degradation Assay; set-up: HELIOS-PE-Cy7, EOS-PE, IKAROS-PECF594, AIOLOS-AF647; endogenous in cells; details: Jurkat cells, 72 h; for IKZF1 Ikaros max % deg. observed: flow cytometry, 100% = complete degradation
Description: as §1

IKZF2 Helios [6] = target: T3, IKZF2 Helios; test: Jurkat Cellular Degradation Assay; set-up: endogenous in cells; details: Jurkat cells, 72 h; concentration reducing protein by 50% vs DMSO
Description: as §1, with “Subsequently, 30 μL of 1× Permeabilization buffer was added prior to centrifuging the cells and discarding the supernatant.” left out

IKZF2 Helios [7] = target: T3, IKZF2 Helios; test: Human T Regulatory Cells Degradation Assay; set-up: endogenous in cells; host or cells: primary human CD4+CD127lowCD25+ Treg cells sorted from healthy-donor leukopaks; details: 20 hours
Description: Cryopreserved human T regulatory cells were thawed in RPMI+10% FBS+20 ng/mL IL-2. After being spun at 1200 rpm for 5 mins, the cells were resuspended in RPMI+10% FBS+20 ng/mL and rested at 37° C. with 5% CO2 for 3 hours. The cells were then plated at 40,000 cells/well in 40 μL RPMI+10% FBS+20 ng/mL human IL-2 in a 384 well cell culture plate prior to using acoustic dispensing technology (ECHO 555) for adding compounds of interest. Cell cultures were incubated for 20 hours at 37° C., and 5% CO2. In order to facilitate analysis, cell cultures were spun down at 1200 rpm for 5 minutes and the supernatant was discarded using an EL406 plate washer. After washing three times with 70 μL PBS, cell pellets were resuspended in 50 μL of near IR viability staining solution (Life Technologies, Cat #L34975) and incubated for 30 minutes on ice protected from light. Cells were washed three times with […] PBS+0.5% BSA using an EL406 plate washer. After shaking the plate to dislodge the cell pellet, cells were resuspended in 50 μL of Fixation Buffer (eBioScience FoxP3 buffer set 00-5523-00) for 60 minutes at room temperature. […] Stained cells were resuspended in 30 μL of flow cytometry staining buffer (PBS+0.5% BSA) and analyzed using an Intellicyt Ique Plus flow cytometer.

IKZF1 Ikaros [8] = target: T2, IKZF1 Ikaros; test: Human T Regulatory Cells Degradation Assay; set-up: HELIOS-PE-Cy7, EOS-PE, IKAROS-PECF594, AIOLOS-AF647; endogenous in cells; details: 20 hours
[9] = concentration reducing protein by 50% vs DMSO

T1 sequence (Q9UKT9 whole entry): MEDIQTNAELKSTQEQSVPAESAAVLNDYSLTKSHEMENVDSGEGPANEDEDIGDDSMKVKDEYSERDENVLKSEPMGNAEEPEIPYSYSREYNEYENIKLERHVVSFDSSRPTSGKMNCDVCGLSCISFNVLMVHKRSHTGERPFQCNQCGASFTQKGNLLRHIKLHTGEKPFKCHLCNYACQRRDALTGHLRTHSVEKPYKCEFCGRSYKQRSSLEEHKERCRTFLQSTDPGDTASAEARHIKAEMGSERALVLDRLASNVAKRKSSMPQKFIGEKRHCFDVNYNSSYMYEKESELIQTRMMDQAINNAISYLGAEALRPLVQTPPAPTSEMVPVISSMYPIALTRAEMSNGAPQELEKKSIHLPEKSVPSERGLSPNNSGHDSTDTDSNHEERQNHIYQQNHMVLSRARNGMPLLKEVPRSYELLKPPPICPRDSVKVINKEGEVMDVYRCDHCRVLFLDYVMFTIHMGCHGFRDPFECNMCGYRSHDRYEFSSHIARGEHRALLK
T1 sequence (Q96SW2 whole entry): as the sequence (Q96SW2 whole entry) above
T1 sequence (Q16531 whole entry partner): as the sequence (Q16531 whole entry partner) above

Structure (SMILES)	IKZF3 Aiolos max % deg. observed (IKZF3 Aiolos [1]) [%]	IKZF3 Aiolos Maximum Observed Degradation (IKZF3 Aiolos [2]) [%]	DC50 (IKZF3 Aiolos [2]) [nM]	IKZF1 Ikaros Maximum Observed Degradation (IKZF1 Ikaros [3]) [%]	DC50 (IKZF1 Ikaros [3]) [nM]	DC50 (IKZF2 Helios [4]) [nM]	DC50 (IKZF4 Eos) [nM]	IKZF1 Ikaros max % deg. observed (IKZF1 Ikaros [5]) [%]	DC50 (IKZF3 Aiolos [1]; [9]) [nM]	DC50 (IKZF2 Helios [6]) [nM]	DC50 (IKZF1 Ikaros [5]; [9]) [nM]	DC50 (IKZF2 Helios [7]; 50% reduction vs DMSO) [nM]	IKZF2 Helios max % deg. observed (IKZF2 Helios [7]; flow cytometry) [%]	DC50 (IKZF1 Ikaros [8]; 50% reduction vs DMSO) [nM]	IKZF1 Ikaros max % deg. observed (IKZF1 Ikaros [8]; flow cytometry) [%]
O=C1CCC(n2cc(-c3ccc(Br)cc3F)oc2=O)C(=O)N1 (stereo not drawn) [Comparative Compound B, 3-(5-(4-bromo-2-fluorophenyl)-2-oxooxazol-3(2H)-yl)piperidine-2,6-dione, reference compound]	15														
[2H]C1([2H])C(=O)NC(=O)C([2H])(n2cc(-c3ccc(-c4cc(C)c(C)c(N)n4)cc3F)oc2=O)C1([2H])[2H] (stereo not drawn) [Example 2, 3-(5-(4-(6-amino-4,5-dimethylpyridin-2-yl)-2-fluorophenyl)-2-oxooxazol-3(2H)-yl) piperidine-2,6-dione-3,4,4,5,5-D5]		71	26	66	139	42	0.63								
O=C1CCC(n2cc(-c3ccccc3)oc2=O)C(=O)N1 (stereo not drawn) [Comparative Compound A, 3-(2-oxo-5-phenyloxazol-3(2H)-yl)piperidine-2,6-dione, reference compound]	46							57							
Cc1cc(-c2ccc(-c3cn(C4CCC(=O)NC4=O)c(=O)o3)c(F)c2)nc(N)c1C (stereo not drawn) [Example 1, 3-(5-(4-(6-Amino-4,5-dimethylpyridin-2-yl)-2-fluorophenyl)-2-oxooxazol-3(2H)-yl) piperidine-2,6-dione]	54	77	19	74	102	85	1.5	66	4920	13.6	1080	5.2	99	5470	55
